Measured values: patent US20260070927A1, “INDAZOLE MACROCYCLES FOR THE TREATMENT OF AUTOIMMUNE DISEASE” (Hoffmann-La Roche Inc., priority 2022, published 2026)

Columns and labels:
STING (IFN-β in hPBMC) = test: hPBMC cytokine functional assay (IFN-β decrease after Baculovirus stimulation); assay type: cell-based; settings: Homo sapiens, Baculovirus MOI 40, 24 hours, read-out: hPBMC_IC50
Procedure: The inhibition of STING by compounds could be measured by the decrease of IFN-β in hPBMC, which is stimulated by a double stranded DNA virus Baculoviurs (Purchased from Genescript, pCMV-Dest Vector virus generation P2 BV stock virus, Sf-900 II medium with 5% FBS, Lot C9835DK230-2/P4DL001). Frozen hPBMC cells (purchased from Stemcell Technologies, cat number is 70025, Lot 191070803C) were thawed at 37° C. water bath, then cells were re-suspended in 50 ml tube using 20 ml Cell culture medium, and then centrifuged for 5 min at 2000 rpm before the supernatant was removed carefully. The cells were re-suspended in culture medium (RPMI-1640 with 1.5 g/L NaHCO3, 4.5 g/L glucose, 10 mM HEPES and 1 mM Na-pyruvate, 10% HI-FBS); 65 μL of the cell suspension was dispensed into 384 well plate (70K cells/well) by Multidrop Combi with at least 3 hours incubation at 37° C., 5% CO2 cell incubator.
Then 4 μL of compound solution per well (final 0.5% DMSO) was transferred by Agilent Bravo followed by infection with 11 μL of Baculovirus at a final MOI of 40. The level of IFN-β secreted in the supernatant of hPBMC was determined after 24 hours of incubation at 37° C. cell incubator by human IFN-β HTRF assay (Cisbio, cat: 62HIFNBPEH) following the manufacture's instruction. CellTiter-Glo kit (Promega, cat: G7573) was applied for the cell viability evaluation using Envision.

[1] = target: human stimulator of interferon genes (STING) (139-379) (Homo sapiens (Human), UniProt Q86WV6); test: Microliter plate-based TR-FRET competition-binding assay for binders of STING; settings: Alexa488 probe, read-out: FRET_IC50
Procedure: This is the competition-binding assay to test the compounds' potency to the C-terminal Domain (CTD) and ligand-binding domain of human stimulator of interferon genes (STING). STING (139-379, Q86WV6, http://www.uniprot.org/uniprot) recombinant protein (in 20 mM Tris, 150 mM NaCl, pH 8.0, and expression in Escherichia coli (E. coli) BL21 (DE3)) with a C-terminal flag-tag was employed for the assay. When Alexa-488 labeled active site probe (refer to patent WO2017/175156 A1) bounds to STING (139-379), it accepts the 485 nm emission from Tb-M2-Flag-STING and results in an increase in fluorescence at 520 nm. Compounds that compete for the probe-binding site will reduce 520 nm signal. The assay was run in proxiplate-384 plus (PerkinElmer, cat: 60150300) containing of 2.5 nM STING, 2.5 nM M2-Tb (Cisbio, 61FG2TLA, Lot: 17 A) and 250 nM Alexa488 probe. Plates were centrifuged for 1 min at 1000 rpm, incubated for 30 min at room temperature, and then measured the dual fluorescence emission at 520 nm/485 nM following 320 nm laser excitation on an Envision plate reader (Perkin-Elmer). The compounds' effect on the STING binding is detected by measuring ratiometric fluorescence from time-resolved FRET. The percentage of inhibition of at each compound concentration is calculated on the basis of their changes of TR-FRET efficiency relative to the change of TR-FRET caused by positive control 2′3′cGAMP (Sigma, cat: SML1229).

Chain of human stimulator of interferon genes (STING) (139-379) (Q86WV6 139-379): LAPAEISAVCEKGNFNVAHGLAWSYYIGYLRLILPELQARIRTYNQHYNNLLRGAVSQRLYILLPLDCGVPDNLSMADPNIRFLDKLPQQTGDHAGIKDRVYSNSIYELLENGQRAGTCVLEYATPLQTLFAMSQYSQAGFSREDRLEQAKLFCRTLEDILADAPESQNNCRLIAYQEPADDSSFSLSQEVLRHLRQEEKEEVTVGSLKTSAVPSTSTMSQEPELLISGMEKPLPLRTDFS

| Compound | IC50 (STING (IFN-β in hPBMC)) | IC50 [1] |
| --- | --- | --- |
| Cn1nc2cccc3c2c1CCCNC(=O)[C@@H]1C[C@@H](CN1c1ncnc2c1cnn2-c1ccc(F)cc1F)Oc1cccc-3c1 [Example 1, (8S,11S)-10-[1-(2,4-difluorophenyl)pyrazolo[3,4-d]pyrimidin-4-yl]-18-methyl-7-oxa-10,13,18,19-tetrazapentacyclo[15.6.1.1^2,6.1^8,11.0^20,24]hexacosa-1(23),2(26),3,5,17(24),19,21-heptaen-12-one] | 486 nM | 0.8 nM |
| CN1CCCc2c3c(cccc3nn2C)-c2cccc(c2)O[C@H]2C[C@@H](C1=O)N(c1ncnc3c1cnn3-c1ccc(F)cc1F)C2 [Example 2, (8S,11S)-10-[1-(2,4-difluorophenyl)pyrazolo[3,4-d]pyrimidin-4-yl]-13,18-dimethyl-7-oxa-10,13,18,19-tetrazapentacyclo[15.6.1.1^2,6.1^8,11.0^20,24]hexacosa-1(23),2(26),3,5,17(24),19,21-heptaen-12-one] | 594 nM | 2.7 nM |
| CN1CCCc2c3c(cccc3nn2C)-c2cccc(n2)N[C@H]2C[C@@H](C1=O)N(c1ncnc3c1cnn3-c1ccc(F)cc1F)C2 [Example 3, (8S,11S)-10-[1-(2,4-difluorophenyl)pyrazolo[3,4-d]pyrimidin-4-yl]-13,18-dimethyl-7,10,13,18,19,26-hexazapentacyclo[15.6.1.1^2,6.1^8,11.0^20,24]hexacosa-1(23),2(26),3,5,17(24),19,21-heptaen-12-one] | 288 nM | 0.6 nM |
| CN1CCCc2c3c(cccc3nn2C)-c2ccnc(n2)N[C@H]2C[C@@H](C1=O)N(c1nccn3c(-c4ccc(F)cc4F)ncc13)C2 [Example 5, (8S,11S)-10-[3-(2,4-difluorophenyl)imidazo[1,5-a]pyrazin-8-yl]-13,18-dimethyl-5,7,10,13,18,19,26-heptazapentacyclo[15.6.1.1^2,6.1^8,11.0^20,24]hexacosa-1(23),2,4,6(26),17(24),19,21-heptaen-12-one] | 308 nM | 3.8 nM |
| Cn1nc2cccc3c2c1CCCN(Cc1cscn1)C(=O)[C@@H]1C[C@@H](CN1c1ncnc2c1cnn2-c1ccc(F)cc1F)Oc1cccc-3c1 [Example 17, (8S,11S)-10-[1-(2,4-difluorophenyl)pyrazolo[3,4-d]pyrimidin-4-yl]-18-methyl-13-(thiazol-4-ylmethyl)-7-oxa-10,13,18,19-tetrazapentacyclo[15.6.1.1^2,6.1^8,11.0^20,24]hexacosa-1(23),2(26),3,5,17(24),19,21-heptaen-12-one] |  | 2.2 nM |
| Cn1nc2cccc3c2c1CCCN(CCCn1cncn1)C(=O)[C@@H]1C[C@@H](CN1c1ncnc2c1cnn2-c1ccc(F)cc1F)Oc1cccc-3c1 [Example 37, (8S,11S)-10-[1-(2,4-difluorophenyl)pyrazolo[3,4-d]pyrimidin-4-yl]-18-methyl-13-[3-(1,2,4-triazol-1-yl)propyl]-7-oxa-10,13,18,19-tetrazapentacyclo[15.6.1.1^2,6.1^8,11.0^20,24]hexacosa-1(23),2(26),3,5,17(24),19,21-heptaen-12-one] |  | 1.5 nM |
| COCCOCCCN1CCCc2c3c(cccc3nn2C)-c2cccc(c2)O[C@H]2C[C@@H](C1=O)N(c1ncnc3c1cnn3-c1ccc(F)cc1F)C2 [Example 39, (8S,11S)-10-[1-(2,4-difluorophenyl)pyrazolo[3,4-d]pyrimidin-4-yl]-13-[3-(2-methoxyethoxy)propyl]-18-methyl-7-oxa-10,13,18,19-tetrazapentacyclo[15.6.1.1^2,6.1^8,11.0^20,24]hexacosa-1(23),2(26),3,5,17(24),19,21-heptaen-12-one] |  | 5.5 nM |
